Measurements as given in US20080287396A1, “Phosphonated Fluoroquinolones, Antibacterial Analogs Thereof, and Methods for the Prevention and Treatment of Bone and Joint Infections” (TARGANTA THERAPEUTICA INC., priority 2005, published 2008).
Converted amounts (≈) assume the structure as drawn. “Also recorded” adds a separate entry of the source.

Experiments:
[1] = system: S. aureus strains ATCC13709 and RN4220; assay: microbe, parasite or virus in culture; assay type: cell-based; conditions: Staphylococcus aureus, read-out: minimum inhibitory concentration (MIC)
Method: (§1) Susceptibility of S. aureus strains ATCC13709 and RN4220 to the commercial antibiotics and synthesized compounds was determined by following the guidelines set by the Clinical and Laboratory Standards Institute (formerly the National Committee for Clinical Laboratory Standards) (M26-A). Compounds were diluted two-fold serially in DMSO and transferred to cation-adjusted Mueller Hinton broth (CAMHB; Becton Dickinson). 50 μL of compounds diluted in CAMHB was mixed with 100 μL of bacteria diluted in CAMHB in 96-well microtiter plates. The final number of micro-organisms in the assay was 5×10^5 c.f.u. per mL and the final concentration of DMSO in the assay was 1.25%. Assays were set up in duplicate and incubated at 37° C. for 18 h. The concentration of compound that inhibited visible growth was reported as the minimum inhibitory concentration (MIC).

[2] = Bone powder binding, fluorometric detection; conditions: for Binding to bone (%) Fluorescence: 1 mg/ml compound, bone meal powder 10 mg/ml in PBS, 37° C., 1 h
Summary of the method: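 LC/MS method: 100 μM compound in 0.1 M Tris-HCl pH 7, 0.15 M NaCl shaken 10 min with or without ground rat tibia, centrifuged, unbound compound measured in supernatant. Fluorometric method: 1 mg/ml compound in 10 mg/ml bone meal/PBS, 1 h at 37 °C, pellet washed. Supernatant fluoroquinolone read at 280/465 nm; bound amount taken as input minus recovered.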

S. aureus ATCC 13709 = assay: Prophylactic model of bone infection in rats; assay type: in vivo, rat; conditions: for bacterial titer compared with untreated group: 10 mg/kg IV 1 h after infection (positive control); for prophylactic effect in rat model of bone infection, in words: Table 4 and FIGS. 6-8, doses as in Table 4
Summary of the method: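 Female CD rats (n=5/group) given intra-tibial 5% sodium morrhuate then S. aureus (ca. 5×10^5 CFU/rat), hole sealed with dental cement. Prodrugs given as single IV bolus in 0.9% saline at various times before infection; parent at molar equivalent dose. Tibiae harvested 24 h postinfection; Log CFU/g bone, detection limit 2 Log CFU/g.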

Hela cells = assay: Cytotoxicity assay (MTS reduction); assay type: cell-based; conditions: concentrations up to 100 μM, 18 h, MTS reagent; data not shown
Method: Selected compounds were also tested for their ability to inhibit growth of mammalian cells so as to ascertain levels of cytotoxicity to the mammalian host, via an assay measuring the biological reduction of the inner salt of (3-(4,5-dimethylthiazol-2-yl)-5-(3-carboxymethoxyphenyl)-2-(4-sulfophenyl)-2H-tetrazolium (MTS reagent). Assays were performed in 96-well microtiter plates. Briefly, compounds at 100, 50, 25, and 12.5 μM concentrations were incubated with 2×10^4 Hela cells per well in Dulbecco's Modified Eagle Medium (Invitrogen Corporation) containing 1% Bovine Growth Serum (HyClone) for 18 h at 37° C. under 5% CO2.

[3] = Bone powder binding, LC/MS detection; conditions: 100 μM compound, Tris-HCl pH 7, 0.15M NaCl, ground rat tibia bone, 10 min
Method: The ability of the example molecules to bind to bone powder was established in two parallel fashions, using either LC/MS or fluorometric detection. For LC/MS detection, a stock solution (5 mM) of the compound to be tested was added to 0.1M Tris-HCl buffer pH 7, 0.15M NaCl to reach a final concentration of 100 μM. Triplicate samples (1 mL) of the compound solutions were intensively shaken for 10 min with or without 25 mg of fresh or 20 mg of vacuum dried ground rat tibia bone. The samples were then centrifuged for 15 min at 10 000 g. The presence of unbound compound was measured by injection of 30 μL of each of the supernatants into an Agilent 1100™ LC/UV system. For fluorometric detection, an individual compound was dissolved in PBS or water (compound 52) and resuspended at a concentration of 1 mg/ml in a slurry of bone meal powder (Now Foods, Bloomingdale, Ill., USA) in PBS at 10 mg/ml. The suspension of drug/prodrug in bone meal powder was incubated at 37° C. for 1 h to allow for binding, and centrifuged at 13 000 rpm for 2 min, before recovering the supernatant. The bone meal powder pellet was then washed three times with 1 ml of PBS. All supernatants were saved and assessed for fluoroquinolone content by fluorescence measurements at excitation/emission wavelengths of 280/465 nm. The amount of fluoroquinolone was determined from standard curves generated for each experiment. Amount of drug/prodrug bound to bone powder was deduced from the difference between the input amount (typically 1 mg) and the amount recovered in the supernatants after binding. In all binding experiments, >99% of input drug was recovered in the supernatant for the parent drugs.

[4] = system: S. aureus strains ATCC13709 and RN4220; assay: Susceptibility testing (MIC) in the presence of serum; assay type: cell-based; conditions: Staphylococcus aureus
Method: as §1
Susceptibility testing experiments were also carried out in the presence of serum. These experiments were carried out similar to the susceptibility testing with the following modifications. 75 μL of compounds diluted in CAMHB was mixed with 75 μL of bacteria diluted in 100% serum from any given source (commercial pooled mouse serum (MS) and human serum (HS), Equitech-Bio Inc.) or diluted in 8% purified human serum albumin (HSA) (Calbiochem). […]

[5] = Regeneration of drug from bone powder-bound prodrug; assay type: in vitro ADME; conditions: for effect of the medium (presence or absence of serum) on regeneration rate: PBS vs serum
Method: Amounts of drug “regenerated” from the phosphonated parent prodrug were measured as follows. Washed bone powder-bound prodrugs from the above section were resuspended in 400 μL PBS or in 400 μL 50% (v/v in PBS) human or rat serum. […] Methanol (5× volume relative to supernatant) was added to each supernatant and the mixture was vortexed on a floor model vortex for 15 min to extract freed fluoroquinolone. The mixture was then centrifuged at 10 000 rpm for 15 min to pellet the insoluble material. The supernatant containing the extracted fluoroquinolone was recovered and evaporated to dryness in a speed vac. The dried pellets were resuspended in PBS and the amount of fluoroquinolone was determined by fluorescence measurements as described above. The percentage of drug regenerated was deduced from the difference between amount of bound prodrug and the amount of regenerated drug. The identity of regenerated drug was deduced by MIC determination; MICs of regenerated material matched those of parent drugs but not those of prodrugs.

[6] = ATCC13709, CAMHB, 37° C., 18 h, data not shown

Binding to bone (%) LC/MS [3] [%]	Structure (SMILES)	MIC [1, 6] [µg/mL]	Binding to bone (%) Fluorescence [2] [%]	cytotoxicity (Hela cells)	further results
	COc1c(N2C[C@@H]3CCCN[C@@H]3C2)c(F)cc2c(=O)c(C(=O)O)cn(C3CC3)c12 [Compound 3, Moxifloxacin, reference compound]	0.5 to 1 (≈ 1.25 to 2.49 µM)	0		bacterial titer compared with untreated group (S. aureus ATCC 13709): significant decrease in the bacterial titer; bacterial titer compared with untreated group (S. aureus ATCC 13709; listed as moxifloxacin 3): significant (p<0.05) decrease in bacterial titer; also recorded: significant (p-value ≦0.0002) decrease in bacterial titer; prophylaxis by the parent drug, in words (S. aureus ATCC 13709; used five or two days prior to infection): unable to exhibit such efficient prophylaxis
	COc1c(N2CCNC(C)C2)c(F)cc2c(=O)c(C(=O)O)cn(C3CC3)c12 (stereo not shown) [Compound 15, Gatifloxacin, reference compound]	0.5 to 1 (≈ 1.33 to 2.66 µM)	0		prophylactic effect on bacterial titer (S. aureus ATCC 13709; 10 mg/Kg (equivalent dose) 48 h prior to infection (FIG. 8)): without effect
96.0 ± 2.4	COc1c(N2CCNC(C)C2)c(F)cc2c(=O)c(C(=O)OCCCC(P(=O)(O)O)P(=O)(O)O)cn(C3CC3)c12 (stereo not shown) [Compound 18, 4,4-bisphosphonobutyl 7-(3-methylpiperazin-1-yl)-1-cyclopropyl-6-fluoro-1,4-dihydro-8-methoxy-4-oxoquinoline-3-carboxylate]			no signs of any cytotoxicity	
	CCOP(=O)(OCC)C(CCCCOC(=O)c1cn(C2CC2)c2c(OC)c(N3C[C@@H]4CCCN[C@@H]4C3)c(F)cc2c1=O)P(=O)(OCC)OCC.O=C(O)C(F)(F)F [Compound 26, 5,5-bis(diethylphosphono)pentyl 7-((4aS,7aS)-octahydropyrrolo[3,4-b]pyridin-6-yl)-1-cyclopropyl-6-fluoro-1,4-dihydro-8-methoxy-4-oxoquinoline-3-carboxylate, trifluoroacetate salt]			no signs of any cytotoxicity	MIC ([1]; ATCC13709, 18 h): 32 µg/mL; MIC ([4]; ATCC13709, read-out: MIC in the presence of 50% mouse serum in the medium): 0.5 µg/mL
91.9 ± 5.5	COc1c(N2CCNC(C)C2)c(F)cc2c(=O)c(C(=O)OCCCCC(P(=O)(O)O)P(=O)(O)O)cn(C3CC3)c12 (stereo not shown) [Compound 28, 5,5-bisphosphonopentyl 7-(3-methylpiperazin-1-yl)-1-cyclopropyl-6-fluoro-1,4-dihydro-8-methoxy-4-oxoquinoline-3-carboxylate]			no signs of any cytotoxicity	
	COc1c(N2CCN(C(=O)OC(C)OC(=O)CCCC(P(=O)(O)O)P(=O)(O)O)C(C)C2)c(F)cc2c(=O)c(C(=O)O)cn(C3CC3)c12 (stereo not shown) [Compound 44]	1 to 8 (≈ 1.41 to 11.3 µM)	88.4		effect of the medium (presence or absence of serum) on regeneration rate [5]: fairly similar rates; Measured bacterial titer (Log CFU/g of bone) Test compound (S. aureus ATCC 13709; 20 mg/kg IV, 3 days prior to infection): 4.72 ± 0.83 Log CFU/g of bone; prophylactic effect in rat model of bone infection, in words (S. aureus ATCC 13709): unable to produce a positive result in vivo
	COc1c(N2CCN(C(=O)CC(C)(C)c3cc(P(=O)(O)CP(=O)(O)O)ccc3OC(C)=O)C(C)C2)c(F)cc2c(=O)c(C(=O)O)cn(C3CC3)c12 (stereo not shown) [Compound 141]	4 (≈ 5.32 µM)	36.6		binding to osseous matter, in words ([2]; bisphosphonates bearing three hydroxy groups): less effectively bound; effect of the medium (presence or absence of serum) on regeneration rate [5]: fairly similar rates; Measured bacterial titer (Log CFU/g of bone) Test compound (S. aureus ATCC 13709; 45.4 mg/kg IV, 2 days prior to infection): 2.40 ± 0.44 Log CFU/g of bone; prophylactic effect in rat model of bone infection, in words (S. aureus ATCC 13709): efficient prophylactic effect

Structure (SMILES)	Binding to bone (%) LC/MS [3] [%]	MIC [1, 6] [µg/mL]	Binding to bone (%) Fluorescence [2] [%]	cytotoxicity (Hela cells)	further results
COc1c(N2C[C@@H]3CCCN[C@@H]3C2)c(F)cc2c(=O)c(C(=O)OCCCCC(P(=O)(O)O)P(=O)(O)O)cn(C3CC3)c12 [Compound 25, 5,5-bisphosphonopentyl 7-((4aS,7aS)-octahydropyrrolo[3,4-b]pyridin-6-yl)-1-cyclopropyl-6-fluoro-1,4-dihydro-8-methoxy-4-oxoquinoline-3-carboxylate]	87.6 ± 11.5	32 (≈ 50.7 µM)	92.7		MIC ([4]; ATCC13709, in serum (kind not stated), read-out: MIC in serum): 32 µg/mL; drug released from the bone matter after 7 days of incubation, in words ([5]; 7 days, medium not stated): signs of drug release
